Experimental data published in patent publication EP4112046A1, “PHARMACEUTICAL COMPOSITION AND USE THEREOF” (Alphala Co., Ltd., priority 2021, dated 2023).

Assay: Solubility in buffers or solutions, LC-MS/MS
Format: physicochemical
Settings: 3 mg/mL, 37°C, 24 hrs
Protocol: The test formulation was added into indicated buffers or solutions (ddH2O or 0.9% saline, pH 7.4) to the final concentration of 3 mg/mL, followed by sonicating for 30 mins. Next, the mixture was put into 37°C water bath for 24 hrs. The mixture was mixed well by vortex and 1 mL of mixture was transferred into the 1.5 mL eppendorf tube, followed by centrifuging at 20817 xg for 30 mins. 10 µL of the supernatant was collected, and the concentration of the collected supernatant was determined by LC-MS/MS.

CCOC(=O)CCNC(=O)c1ccc(N[C@H](c2ccc(-c3nnc(-c4ccccc4)o3)cc2)C(C)C)cc1 [ALP001E]
Solubility (mg/ml) (H2O (pH7.0)): < LOQ
Solubility (mg/ml) (Saline (pH7.4)): < LOQ
